The text below walks through data of patent US7713968B2, “Substituted arylcyclopentenes as therapeutic agents” (Allergan, Inc., priority 2008, dated 2010).

This assay deals with lashes and adjacent hairs of the treated eye. Briefly: Observation of lashes in glaucoma patients treated with bimatoprost in one eye. The class given is in vivo. The conditions noted are these: glaucoma patient treated in only one eye. The text has this: In the course of treating patients having glaucoma, treatment may only be appropriate in one eye. […] The lash appearance on the lids of the treated eyes would have appeared quite attractive if it represented a bilateral phenomenon. As a result of its asymmetric nature, the long lashes on one side could be construed as disturbing from a cosmetic standpoint. A systemic examination was preformed as a result of the asymmetric phenomenon. It soon became apparent that this altered appearance was not an isolated finding. […] Definite differences could be identified to varying degrees in the lashes and adjacent hairs of all patients who were taking the drug on a unilateral basis for longer than 6 months.
The changes in the lashes were apparent on gross inspection in several patients once attention was focused on the issue. In those with light colored hair and lashes, the differences were only seen easily with the aid of the high magnification and lighting capabilities of the slit lamp biomicroscope. In the course of glaucoma follow-up examination, attention is generally immediately focused on the eye itself. As a result of the high power magnification needed only one eye is seen at a time and the eye is seen at a high enough power that the lashes are not in focus. […]

For the molecule `CCNC(=O)CCC/C=C\C[C@@H]1[C@@H](/C=C/[C@@H](O)CCc2ccccc2)[C@H](O)C[C@@H]1O` [bimatoprost], the “lashes in the treated eye compared with the non-treated eye” value is “longer, thicker, and fuller”.
